Assay results published in ChEMBL document CHEMBL4483862, “Open-source discovery of chemical leads for next-generation chemoprotective antimalarials” (2018).

Test system: Plasmodium berghei
Assay: Luciferase/luciferin-expressing antifolate-resistant parasites were used to infect a culture of HepG2 cells that were pre-incubated with compounds. Infected hepatocytes emit light due to the luciferase reaction. Assay results are presented as the percent inhibition of light emission compared to control. […]
Assay type: functional
Details: sporozoite; for IC90: read-out: LUCIFERASE INFECTION ASSAY - IC90

SMILES | IC90 [µM] | other results
CCNc1nc(CN2CCCCC2)nc2scc(-c3ccccc3)c12 | 5.12 | IC50 (PBLUC_HILL_SLOPE 4.71, PBLUC_R_SQUARED 0.781, read-out: LUCIFERASE INFECTION ASSAY - IC50): 3.21 µM
CC(C)CC(N)c1csc(NC(=O)Nc2ccccc2C(C)(C)C)n1 (configuration not stated) | 3.05 | IC50 (PBLUC_HILL_SLOPE 4.98, PBLUC_R_SQUARED 0.541, read-out: LUCIFERASE INFECTION ASSAY - IC50): 1.96 µM
Brc1ccc(OCc2ccccc2)c(CNCc2ccccn2)c1 | 6.94 | IC50 (PBLUC_HILL_SLOPE 4.81, PBLUC_R_SQUARED 0.436, read-out: LUCIFERASE INFECTION ASSAY - IC50): 4.39 µM
CCN(CC)CCn1c(NC(=O)c2cc3c(s2)CCCC3)nc2ccccc21 | > 10 | IC50 (PBLUC_HILL_SLOPE 4.87, PBLUC_R_SQUARED 0.309, read-out: LUCIFERASE INFECTION ASSAY - IC50): 6.91 µM
Cc1c(N/N=C(/C(=O)Nc2ccccc2)C(=O)c2ccccc2)c(=O)n(-c2ccccc2)n1C | > 10 | IC50 (PBLUC_HILL_SLOPE 4.97, PBLUC_R_SQUARED 0.638, read-out: LUCIFERASE INFECTION ASSAY - IC50): 8.09 µM
CC(C)c1ccccc1NC(=O)Nc1nc(C(N)Cc2ccc(Cl)cc2)cs1 (configuration not stated) | > 7.95 | IC50 (PBLUC_HILL_SLOPE 4.88, PBLUC_R_SQUARED 0.323, read-out: LUCIFERASE INFECTION ASSAY - IC50): 5.13 µM
Cc1nn(-c2ccc(C(=O)Nc3nc(CN4CCCC4)cs3)cc2)c(C)c1Cl | 7.87 | IC50 (PBLUC_HILL_SLOPE 4.86, PBLUC_R_SQUARED 0.713, read-out: LUCIFERASE INFECTION ASSAY - IC50): 5.01 µM
Cc1cccc(-c2cn3c(-c4cccc(O)c4)cnc3cn2)c1C | > 10.5 | IC50 (PBLUC_HILL_SLOPE 4.97, PBLUC_R_SQUARED 0.533, read-out: LUCIFERASE INFECTION ASSAY - IC50): 8.4 µM
CC(C)OC(=O)c1c(NC(=O)CSc2nnc(N)[nH]2)sc2c1CCCC2 | > 10 | IC50 (PBLUC_HILL_SLOPE 4.93, PBLUC_R_SQUARED 0.291, read-out: LUCIFERASE INFECTION ASSAY - IC50): 7.71 µM
CN1CCN(c2ccc(-c3cn4c(-c5cccc(O)c5)cnc4cn3)cn2)CC1 | > 8.54 | IC50 (PBLUC_HILL_SLOPE 4.85, PBLUC_R_SQUARED 0.265, read-out: LUCIFERASE INFECTION ASSAY - IC50): 7.18 µM
COc1ccccc1C(=O)NCC#Cc1cccc(C(F)(F)F)c1 | 8.91 | IC50 (PBLUC_HILL_SLOPE 4.8, PBLUC_R_SQUARED 0.508, read-out: LUCIFERASE INFECTION ASSAY - IC50): 5.64 µM
CNc1nc2cnc(Nc3cccc(C(C)C)c3)cc2n1CC1CC1 | 9.92 | IC50 (PBLUC_HILL_SLOPE 4.69, PBLUC_R_SQUARED 0.216, read-out: LUCIFERASE INFECTION ASSAY - IC50): 6.21 µM
O=C1C(=C(O)c2ccc(OC(F)F)cc2)Sc2ccccc21 | > 10 | IC50 (PBLUC_HILL_SLOPE 4.86, PBLUC_R_SQUARED 0.465, read-out: LUCIFERASE INFECTION ASSAY - IC50): 9.12 µM
CN(C)C(=O)c1ccc(-c2cc3c(Nc4cccc(C(F)(F)F)c4)nccc3n2C)cc1 | 6.54 | IC50 (PBLUC_HILL_SLOPE 4.75, PBLUC_R_SQUARED 0.5, read-out: LUCIFERASE INFECTION ASSAY - IC50): 4.12 µM
Cc1c(C)c(C)c(S(=O)(=O)N2CCN(C(C)C(=O)NC3CC3)CC2)c(C)c1C (configuration not stated) | 9.56 | IC50 (PBLUC_HILL_SLOPE 4.98, PBLUC_R_SQUARED 0.411, read-out: LUCIFERASE INFECTION ASSAY - IC50): 6.15 µM
CCCCNC(=O)c1c(NCCC)sc(C(=O)c2ccc(OC)cc2)c1N | > 10 | IC50 (PBLUC_HILL_SLOPE 4.7, PBLUC_R_SQUARED 0.148, read-out: LUCIFERASE INFECTION ASSAY - IC50): 8.99 µM
CC(C)(CNC(=O)Nc1ccccc1)SCc1ccc(Cl)cc1 | > 9.46 | IC50 (PBLUC_HILL_SLOPE 4.79, PBLUC_R_SQUARED 0.408, read-out: LUCIFERASE INFECTION ASSAY - IC50): 6.73 µM
CC(=O)NCCC(=O)N(c1ccc(Oc2ccccc2)cc1)c1nc2ccccc2s1 | > 10 | IC50 (PBLUC_HILL_SLOPE 4.74, PBLUC_R_SQUARED 0.599, read-out: LUCIFERASE INFECTION ASSAY - IC50): 6.78 µM
Cc1ccc(Nc2nc(CSc3nc4ccccc4c(=O)n3CCCCCCC(C)C)cs2)cc1 | > 10 | IC50 (PBLUC_HILL_SLOPE 4.69, PBLUC_R_SQUARED 0.352, read-out: LUCIFERASE INFECTION ASSAY - IC50): 7.63 µM
COc1ccc(OC)c(CN2CCN(c3nc(-c4cccnc4)nc4sc(C)c(C)c34)CC2)c1 | 6.84 | IC50 (PBLUC_HILL_SLOPE 4.71, PBLUC_R_SQUARED 0.569, read-out: LUCIFERASE INFECTION ASSAY - IC50): 4.29 µM
CCC1CCc2sc(C(=O)NCCc3ccccn3)cc2C1 (configuration not stated) | > 10 | IC50 (PBLUC_HILL_SLOPE 5.05, PBLUC_R_SQUARED 0.237, read-out: LUCIFERASE INFECTION ASSAY - IC50): 7.77 µM

SMILES | IC90 [µM] | other results
O=C(CSCc1cn(-c2ccccc2)nc1-c1ccccc1)NC1CCCC1 | > 10 | IC50 (PBLUC_HILL_SLOPE 4.68, PBLUC_R_SQUARED 0.205, read-out: LUCIFERASE INFECTION ASSAY - IC50): 6.9 µM
Cc1cc(C(=O)NCC#Cc2cccc(C(F)(F)F)c2)on1 | 8.21 | IC50 (PBLUC_HILL_SLOPE 5.05, PBLUC_R_SQUARED 0.342, read-out: LUCIFERASE INFECTION ASSAY - IC50): 5.32 µM
CCN(CC)C(CNC(=O)c1ccc2c(c1)OCC(=O)N2)c1ccccc1Cl (configuration not stated) | 8.02 | IC50 (PBLUC_HILL_SLOPE 4.94, PBLUC_R_SQUARED 0.519, read-out: LUCIFERASE INFECTION ASSAY - IC50): 5.14 µM
Cc1c(C(=O)OCc2coc(-c3cccs3)n2)sc2nc3n(c(=O)c12)CCC3 | 7.63 | IC50 (PBLUC_HILL_SLOPE 4.64, PBLUC_R_SQUARED 0.43, read-out: LUCIFERASE INFECTION ASSAY - IC50): 4.75 µM
O=C1C(=O)N(CCN2CCOCC2)c2ccc(F)cc21 | > 11.9 | IC50 (PBLUC_HILL_SLOPE 4.75, PBLUC_R_SQUARED 0.191, read-out: LUCIFERASE INFECTION ASSAY - IC50): 10.9 µM
CCNC(=O)c1nn(Cc2cccc(OC)c2)c2c1CN(CCC(C)c1ccc(C)o1)CC2 (configuration not stated) | > 7.32 | IC50 (PBLUC_HILL_SLOPE 5.04, PBLUC_R_SQUARED 0.686, read-out: LUCIFERASE INFECTION ASSAY - IC50): 6.68 µM
Cc1cc(-n2c(C)cc(C(=O)COc3ccccc3C#N)c2C)no1 | > 10 | IC50 (PBLUC_HILL_SLOPE 4.77, PBLUC_R_SQUARED 0.224, read-out: LUCIFERASE INFECTION ASSAY - IC50): 7.56 µM
Nc1cccc(-c2cn3c(-c4ccc5c(c4)OCO5)cnc3cn2)c1 | 8.12 | IC50 (PBLUC_HILL_SLOPE 4.69, PBLUC_R_SQUARED 0.303, read-out: LUCIFERASE INFECTION ASSAY - IC50): 5.08 µM
CCC(C)(C)C1CCc2c(sc(NC(=O)CN3CCOCC3)c2C#N)C1 (configuration not stated) | 8.57 | IC50 (PBLUC_HILL_SLOPE 4.77, PBLUC_R_SQUARED 0.355, read-out: LUCIFERASE INFECTION ASSAY - IC50): 5.41 µM
Cn1ccnc1Sc1ncnc2sccc12 | 3.92 | IC50 (PBLUC_HILL_SLOPE 5.04, PBLUC_R_SQUARED 0.521, read-out: LUCIFERASE INFECTION ASSAY - IC50): 2.53 µM
Fc1ccc(Nc2ncnc3c2cnn3Cc2ccc(Cl)cc2)cc1 | 9.37 | IC50 (PBLUC_HILL_SLOPE 4.8, PBLUC_R_SQUARED 0.59, read-out: LUCIFERASE INFECTION ASSAY - IC50): 5.93 µM
CNC(=O)c1ccc(CN(CCOc2cccc(F)c2)C2CC2)cc1 | > 10 | IC50 (PBLUC_HILL_SLOPE 4.75, PBLUC_R_SQUARED 0.3, read-out: LUCIFERASE INFECTION ASSAY - IC50): 6.72 µM
O=C(NNC(=O)c1cc2c(s1)CCCCC2)c1ccccn1 | 8.35 | IC50 (PBLUC_HILL_SLOPE 4.79, PBLUC_R_SQUARED 0.138, read-out: LUCIFERASE INFECTION ASSAY - IC50): 5.28 µM
Cc1nn(-c2ccccc2)c(Cl)c1/C=N/OCC(=O)Nc1cccc(C(F)(F)F)c1 | 9.91 | IC50 (PBLUC_HILL_SLOPE 4.91, 2.77, PBLUC_R_SQUARED 0.190, 0.335, read-out: LUCIFERASE INFECTION ASSAY - IC50): 5.6 µM
Cn1ccnc1SCC(=O)Nc1ccc(C(=O)Nc2ncccc2O)cc1 | 5.1 | IC50 (PBLUC_HILL_SLOPE 5, PBLUC_R_SQUARED 0.401, read-out: LUCIFERASE INFECTION ASSAY - IC50): 3.28 µM
CS(=O)(=O)Nc1cccc(-c2cnc3sc(NCCOc4ccccc4)nn23)c1 | > 7.68 | IC50 (PBLUC_HILL_SLOPE 4.91, PBLUC_R_SQUARED 0.558, read-out: LUCIFERASE INFECTION ASSAY - IC50): 5.02 µM
CC1CCc2sc(-c3nnc(SCC(=O)Nc4sccc4C(N)=O)o3)cc2C1 (configuration not stated) | 9.89 | IC50 (PBLUC_HILL_SLOPE 4.8, PBLUC_R_SQUARED 0.154, read-out: LUCIFERASE INFECTION ASSAY - IC50): 6.26 µM
COCOc1ccc(-c2cc(-c3ccc(OC)c(OC)c3)cnc2N)cc1 | > 9.01 | IC50 (PBLUC_HILL_SLOPE 4.72, PBLUC_R_SQUARED 0.371, read-out: LUCIFERASE INFECTION ASSAY - IC50): 7.27 µM
CCc1c(C)sc(NC(=O)c2c(-c3ccccc3)noc2C)c1C(=O)OC | > 8.58 | IC50 (PBLUC_HILL_SLOPE 4.81, PBLUC_R_SQUARED 0.194, read-out: LUCIFERASE INFECTION ASSAY - IC50): 5.61 µM
Cc1cc(C(=O)COc2ccc(CC(=O)O)cc2)c(C)n1CCC(C)C | 7.13 | IC50 (PBLUC_HILL_SLOPE 4.94, 3.04, PBLUC_R_SQUARED 0.440, 0.373, read-out: LUCIFERASE INFECTION ASSAY - IC50): 5.4 µM
